The values below come from patent US20180312473A1, “PHENAZINE DERIVATIVES AS ANTIMICROBIAL AGENTS” (priority 2015, published 2018).

In brackets after ≈: the same amount, converted by molar mass. Several values for one entry are separate records, joined by “and”; a condition that tells them apart may be missing. Equal values may be shown once. Read-outs that look alike come from different tables or passages of the source.

The subject of data set [1] is Staphylococcus epidermidis (ATCC 12228). Put plainly: MIC assay (broth microdilution, CLSI). Format: cell-based. The following applies: Staphylococcus epidermidis. On the technique in general: In broth dilution the organism is exposed to a series of concentrations in liquid medium.
In data set [2] the test system is Enterococcus faecium (ATCC 700221), VRE. Put plainly: MIC assay (broth microdilution, CLSI). Format: cell-based.
Data set [3] relates to human red blood cells. In words: Hemolysis assay with red blood cells. Conditions: 200 μM. Summed up: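 Hemolysis expressed as percent of the Triton X signal with DMSO as zero, using OD405 of supernatant. Compounds from DMSO stocks were incubated with triple-washed human erythrocytes for 1 hour at 37° C. before centrifugation; three independent experiments.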
Data set [4] relates to MRSA-2 planktonic cells and biofilms. In words: Calgary Biofilm Device (CBD) assay, MBC/MBEC. The format is cell-based, Staphylococcus aureus.
In data set [5] the test system is MRSE (S. epidermidis ATCC 35984) planktonic cells and biofilms. Put plainly: Calgary Biofilm Device (CBD) assay, MBC/MBEC. Format: cell-based, Staphylococcus epidermidis. Conditions: for MBC: Staphylococcus epidermidis, read-out: MRSE 35984 MBC.
The subject of data set [6] is VRE (E. faecium ATCC 700221) planktonic cells and biofilms. Put plainly: Calgary Biofilm Device (CBD) assay, MBC/MBEC. The format is cell-based, Enterococcus faecium. Conditions: for MBC: Enterococcus, read-out: VRE 700221 MBC.
Data set [7] deals with S. aureus clinical isolate SA 138. In words: MIC assay (broth microdilution, CLSI). Conditions: Staphylococcus aureus, read-out: MIC, SA 138.
Data set [8] deals with S. aureus clinical isolate SA 147. In words: MIC assay (broth microdilution, CLSI). The following applies: Staphylococcus aureus, read-out: MIC, SA 147.
Data set [9] has as its system MRSA BAA-1707 planktonic cells and biofilms. In words: Calgary Biofilm Device (CBD) assay, MBC/MBEC. Conditions: Table 8.
For data set [10], the system named is Staphylococcus aureus and S. epidermidis. Conditions: cited from earlier work.
Data set [11] deals with MRSA-2 (methicillin-resistant Staphylococcus aureus clinical isolate). In words: MIC assay (broth microdilution, CLSI). The format is cell-based. The following applies: Staphylococcus aureus, MRSA, read-out: MIC, MRSA-2.
The test system of data set [12] is MRSA-1 (methicillin-resistant Staphylococcus aureus clinical isolate). In words: MIC assay (broth microdilution, CLSI). Format: cell-based. The following applies: Staphylococcus aureus, MRSA, Table 11; read-out: MIC, MRSA-1.
In data set [13] the test system is Staphylococcus epidermidis (ATCC 35984), MRSE. In words: MIC assay (broth microdilution, CLSI). The following applies: Staphylococcus epidermidis. The format is cell-based.
Data set [14] is described as follows: in vitro. The format is cell-based. The following applies: human.
The subject of data set [15] is MRSA BAA-1707. In words: MIC assay (broth microdilution, CLSI). Conditions: Staphylococcus aureus, read-out: MIC, MRSA BAA-1707.
In data set [16] the test system is MRSA BAA-44. In words: MIC assay (broth microdilution, CLSI). Conditions: Staphylococcus aureus, read-out: MIC, MRSA BAA-44.
Data set [17] relates to S. aureus clinical isolate SA 129. In words: MIC assay (broth microdilution, CLSI). The following applies: Staphylococcus aureus, read-out: MIC, SA 129.
Data set [18] has as its system S. aureus clinical isolate SA 156. In words: MIC assay (broth microdilution, CLSI). The following applies: Staphylococcus aureus, read-out: MIC, SA 156.
Data set [19] concerns M. tuberculosis H37Ra (ATCC 25177). Put plainly: Mycobacterium tuberculosis MIC assay. Format: cell-based. The following applies: Mycobacterium tuberculosis. Summed up:
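Culture diluted to OD600 0.01 and exposed to compounds in 0.5% final DMSO, each compound tested in three rows. Growth read as OD600 absorbance. Data from three independent experiments.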

The test system of data set [20] is A. baumannii 19606. Put plainly: MIC assay (broth microdilution, CLSI). Format: cell-based, Acinetobacter baumannii. Conditions: Acinetobacter baumannii, 19606; read-out: A. baumannii 19606 MIC.
The test system of data set [21] is P. aeruginosa (PAO1). In words: MIC assay (broth microdilution, CLSI). Format: cell-based. The following applies: Pseudomonas aeruginosa, PAO1; read-out: PAO1 MIC.
Data set [22] relates to K. pneumoniae 13883. Put plainly: MIC assay (broth microdilution, CLSI). Conditions: Klebsiella pneumoniae, 13883; read-out: K. pneumoniae 13883 MIC. Format: cell-based, Klebsiella pneumoniae.
Data set [23] has as its system E. coli UAEC-1. In words: MIC assay (broth microdilution, CLSI). The format is cell-based. The following applies: Escherichia coli, UAEC1; read-out: E. coli UAEC-1 MIC.
The subject of data set [24] is MRSA-2. In words: MIC assay with Tiron or metal(II) cation co-treatment. The format is cell-based, Staphylococcus aureus. The following applies: Staphylococcus aureus; MRSA-2, no additive (Table 9); read-out: MIC.
Data set [25] in a line: Aqueous solubility under MIC assay conditions. Format: physicochemical. Conditions: MIC assay media, 37 °C, aqueous buffer; read-out: [aq. soluble].
For data set [26], the system named is methicillin-resistant S. aureus (MRSA) strains. Put plainly: MIC assay, values summarised over MRSA strains. The format is cell-based, Staphylococcus aureus.
[27] abbreviates: ATCC12228, read-out: MIC, S. epidermidis 12228.
Where [28] appears, read: ATCC12228, read-out: MIC, Staphylococcus epidermidis (ATCC 12228).
Setting [29] is: Table 7, a midpoint of 2-fold range, b lowest concentration tested.
[30] abbreviates: Table 2A, read-out: MIC, Staphylococcus epidermidis (ATCC 35984).
Where [31] appears, read: Table 7, read-out: MIC, MRSE 35984.
Where [32] appears, read: Enterococcus faecium, Table 2A, read-out: MIC, Enterococcus faecium (ATCC 700221).
Where [33] appears, read: Table 7, b lowest concentration tested, read-out: MIC, VRE 700221.

A word on the MIC: it is the least concentration at which growth counts as inhibited. In the case of `CN[C@H](CC(C)C)C(=O)N[C@H]1C(=O)N[C@@H](CC(N)=O)C(=O)N[C@H]2C(=O)N[C@H]3C(=O)N[C@H](C(=O)N[C@H](C(=O)O)c4cc(O)cc(O)c4-c4cc3ccc4O)[C@H](O)c3ccc(c(Cl)c3)Oc3cc2cc(c3O[C@@H]2O[C@H](CO)[C@@H](O)[C@H](O)[C@H]2O[C@H]2C[C@](C)(N)[C@H](O)[C@H](C)O2)Oc2ccc(cc2Cl)[C@H]1O` [Vancomycin, vancomycin, reference compound], the MIC in data set [1] (setting [27]) was 1.17 µM (≈ 1.7 µg/mL); in data set [1] (setting [28]), 1.17 µM (≈ 1.7 µg/mL); in [2] (Enterococcus faecium, read-out: MIC, Enterococcus faecium (ATCC 700221)), greater than 100 µM; in data set [2] (Table 2B, b lowest concentration tested, read-out: MIC, Enterococcus faecium (ATCC 700221)), greater than 100 µM; in data set [2] (read-out: MIC, VRE 700221) it was greater than 100 µM; in data set [7] it was 1.17 µM (≈ 1.7 µg/mL). The MIC in [8] came to 1.17 µM (≈ 1.7 µg/mL). Further, the “% Hemolysis (200 μM)” value in data set [3] (1 h, 37 °C) is listed as no more than 1%. Besides, the “% Hemolysis at 200 μM” value in data set [3] (red blood cells) was less than 1%; in data set [3] (Table 8, human red blood cells) it was no more than 1%. Moreover, the MBC is 5.9 µM (≈ 8.55 µg/mL) in data set [4] (Staphylococcus aureus, MRSA, read-out: MBC, MRSA-2); 3 µM (≈ 4.35 µg/mL) in data set [4] (Staphylococcus aureus, MRSA, read-out: MRSA-2 MBC); 3.0 µM (≈ 4.35 µg/mL) in data set [4] (Table 8, a/b 2-/4-fold range in independent experiments, read-out: MRSA-2 MBC); 3 µM (≈ 4.35 µg/mL) in data set [5]; greater than 200 µM in data set [6]. In addition, the “MRSE MBEC” value in data set [5] (Table 5) was > 2,000 μM. Besides, the “VRE MBEC” value in data set [6] (Table 5, c lowest concentration tested) is 150 µM. Also, the “MRSA BAA-1707 MBEC” value in [9] is greater than 2000 µM.
Turning to `Oc1cccc2nc3ccccc3nc12` [1-hydroxyphenazine], the “activity against staphylococcal pathogens” value in data set [10] (earlier report) is “inactive”.
As usually defined, the IC50 is the concentration needed to halve the response being measured. On to `Oc1c(I)cc(I)c2nccnc12` [Compound 26], for which the MIC in data set [11] (setting [29]) stood at 3.13 µM (≈ 1.25 µg/mL); in data set [12], 1.56 µM (≈ 0.621 µg/mL); in data set [1] (ATCC12228, Table 2A, read-out: MIC, Staphylococcus epidermidis (ATCC 12228)), 6.25 µM (≈ 2.49 µg/mL); in data set [1] (ATCC12228, Table 7, b lowest concentration tested, read-out: MIC, S. epidermidis 12228), 6.25 µM (≈ 2.49 µg/mL); in [13] (setting [30]), 3.13 µM (≈ 1.25 µg/mL); in data set [13] (setting [31]), 3.13 µM (≈ 1.25 µg/mL). The MIC in data set [2] (setting [32]) worked out at 12.5 µM (≈ 4.97 µg/mL); in [2] (setting [33]) it was 12.5 µM (≈ 4.97 µg/mL); in data set [15] it was 1.56 µM (≈ 0.621 µg/mL); in data set [16], 1.56 µM (≈ 0.621 µg/mL); in data set [17], 6.25 µM (≈ 2.49 µg/mL); in data set [7] it was 6.25 µM (≈ 2.49 µg/mL). Moreover, the MIC in data set [8] worked out at 6.25 µM (≈ 2.49 µg/mL); in data set [18], 3.13 µM (≈ 1.25 µg/mL). In [14], this compound showed an IC50 at 24 h greater than 100 µM. For the same compound, in data set [3] (human, 1 h, pH 7.2), the “% Hemolysis (200 μM)” value is no more than 1%. The “% Hemolysis at 200 μM” value in data set [3] (human, 1 h, pH 7.2) was no more than 1%. Besides, the MBC in data set [4] (Staphylococcus aureus, MRSA, Table 4, read-out: MBC, MRSA-2) was greater than 2000 µM; in [4] (Staphylococcus aureus, MRSA, Table 8, a/b 2-/4-fold range in independent experiments, read-out: MRSA-2 MBC), greater than 2000 µM; in [5] (Table 8), 750 µM (≈ 298 µg/mL).
With `Oc1c(Br)ccc2nc3ccccc3nc12` [Compound 1, 2-bromo-1-hydroxyphenazine], in data set [10] (earlier report of the group), the “MIC against S. aureus and S. epidermidis” value is 6.25 μM and 1.7 μg/mL.
Consider `Oc1ccc(Br)c2nc3cc(Cl)c(Cl)cc3nc12` [Compound 11], for which the MIC in data set [11] (Table 2A) was found to be 0.78 µM (≈ 0.268 µg/mL); in data set [11] (setting [29]), 0.78 µM (≈ 0.268 µg/mL); in data set [12] it was 0.39 µM (≈ 0.134 µg/mL); in [1] (setting [27]) it was 3.13 µM (≈ 1.08 µg/mL); in data set [1] (setting [28]), 3.13 µM (≈ 1.08 µg/mL); in [13] (setting [30]) it was 1.56 µM (≈ 0.537 µg/mL). The MIC was 1.56 µM (≈ 0.537 µg/mL) in data set [13] (setting [31]); 6.25 µM (≈ 2.15 µg/mL) in [2] (setting [32]); 6.25 µM (≈ 2.15 µg/mL) in data set [2] (setting [33]); 3.13 µM in data set [19] (Table 7, read-out: MIC, M. tuberculosis H37Ra); roughly 1 µg/mL in data set [19] (read-out: MIC, M. tuberculosis); greater than 100 µM in data set [20]. Moreover, the MIC is greater than 100 µM in [21]; greater than 100 µM in data set [22]; greater than 100 µM in data set [23]; 0.78 µM in data set [24]; 0.3 µM (≈ 0.103 µg/mL) in data set [15]; 1.17 µM (≈ 0.402 µg/mL) in [16]. Also, the figures for the MIC in data set [17], in data set [7] and in [18] were 0.78 µM (≈ 0.268 µg/mL), 0.78 µM (≈ 0.268 µg/mL) and 1.17 µM (≈ 0.402 µg/mL), respectively. The IC50 at 24 h in data set [14] was greater than 100 µM. For the same compound, the “% Hemolysis (200 μM)” value in [3] (human, 1 h, pH 7.2) stood at 2.7%. In addition, the “% Hemolysis at 200 μM” value in [3] (human, 1 h, pH 7.2) amounted to 2.7%. The MBC in [6] (Table 8, c lowest concentration tested) turned out to be 100 µM (≈ 34.4 µg/mL). The solubility at 16 h in [25] was found to be 200 µM (≈ 68.8 µg/mL). Further, in data set [26], the “growth inhibition activity against at least one MRSA strain” value is listed as “sub-micromolar”.
